Patent US20160355782A1, “METHOD FOR ENHANCING DIFFERENTIATION OF DOPAMINERGIC NEURONS” (Buddhist Tzu Chi Medical Foundation, priority 2015, published 2016)

Legend:
Type in all cases: cell-based, rat
[1] = system: TH promoter in Nurr1-transfected cortical NPCs; assay: TH promoter assay (pAAV-Nurr1 and pTH6.0-GL3) in cortical NPCs; conditions: 24 hours
Text: The luciferase reporter vector pTH6.0-GL3 constructed by engineering the 6.0 kb upstream sequences of the rat TH (TH6.0) gene into pGL3 was kindly provided by Dr. Kwang-Soo Kim (Harvard Medical School, Belmont, Mass.). Vector expressing Nurr1 (mouse) was constructed by inserting the respective cDNA into pAAV-MCS vector (pAAV-Nurr1), in which the cloned gene is designed to be expressed under the control of the cytomegalovirus (CMV) immediate-early promoter. pTH6.0-GL3 alone or combined with pAAV-Nurr1 were transfected into a human neuro-blastoma SH-SY5Y cell line or cortical NPCs, respectively, using Lipofectamine 2000 (Invitrogen) according to the protocol of the manufacturer. For determine the effect of MeCP2-CoREST-HDAC1 repressor complex on TH promoter activity, the SH-SY5Y cells were double transfected with pTH6.0-GL3 and pCMV6-Entry-Mecp2 (Flag-tagged MeCP2)/or pCMV6-Entry-Rcor1 (Flag-tagged CoREST) (both from OriGene Technologies, Rockville, Md.)/or pK7-HDAC1-GFP (Addgene). […] Luciferase activity of cell lysates was determined luminometrically by the luciferase assay system (Promega, Madison, Wis.) as specified by the manufacturer. Luciferase activity was normalized to the protein content of the extracts. Relative luciferase activity was determined to reflect promoter activity of TH, expressed as the fold increase relative to the activity of control or untreated mock control.

[2] = system: cortical neural precursor cells (NPCs); assay: TH+ cell differentiation of lentivirus-transduced (Nurr1 or GFP) cortical NPCs
Method: Cultures of neural precursor cells (NPCs) derived from cortices at E13.5 were performed as the methods known by a person skilled in the art, for example, as the protocol described by Huang et al. (2012) and carried out with some modifications. Briefly, dissected cortical tissues were mechanically triturated and plated at 5×10^4 cells on coverslips (12-mm diameter) pre-coated with 20 μg/mL fibronectin (Invitrogen)/15 μg/mL poly-L-ornithine (Sigma-Aldrich) in 24 well plates. Cells were cultured in a serum-free NPCs culture medium containing DMEMF12, 2% B27 supplement (Invitrogen), 0.6% glucose, 20 ng/mL bFGF (Sigma-Aldrich), 20 ng/mL EGF (Invitrogen), 2 μg/mL heparin (Sigma-Aldrich), 100 U/mL penicillin, and 100 μg/mL streptomycin.
TH promoter assay or lenti-virial transductions were carried out at 60%˜70% cell confluences (usually for 3 days) as described below. Cell differentiation was induced for 3 to 5 days by switching to mitogens-free DMEM/F12/N2 medium in the presence of 0.5 μM UCN. Differentiation medium was changed every other day.
For lenti-viral transduction, E13 cortical NPCs were incubated with lenti-viruses (25 multiplicity of infection) expressing Nurr1 or GFP containing poly-brene (hexadimethrine bromide, 1 μg/mL, Sigma-Aldrich) for 24 hours. After 1 day of further cell expansion in the presence of the mitogens, cells were induced to differentiate.
(§1) For immuno-cytochemistry, cells were fixed with 4% paraformaldehyde followed by blocking with PBS containing 0.4% Triton X-100, 3% normal goat serum and 2% bovine serum albumin (BSA) for 1 h at room temperature. After blocking, cells were incubated overnight at room temperature with primary antibodies. Primary antibodies were rabbit anti-UCN (1:200), mouse anti-TH (1:2000) (both from Sigma-Aldrich), goat anti-CRHR1 (1:100), rabbit anti-CRHR2 (1:250), rat anti-dopamine transporter (DAT, 1:200), chicken anti-MAP2 (1:5000) (all from Abcam, Cambridge, Mass.), rabbit anti-Nurr1 (1:100, Santa Cruz Biotechnology), mouse anti-Nurr1 (1:100, R&D Systems, Minneapolis, Minn.), rabbit anti-TH (1:1000), mouse anti-NeuN (1:200) (both from Chemicon, Temecula, Calif.), rabbit anti-acetyl-histone H3 (1:1000, Upstate Biotechnology, Lake Placid, N.Y.), rabbit anti-Foxa2 (1:500, Cell Signaling Technology), and rabbit anti-Pitx3 (1:100, Invitrogen).
For detection of dopaminergic neurons, the bound anti-TH antibody was visualized by incubation with an appropriate biotinylated secondary antibody followed by the Vectastain avidin-biotin-peroxidase (ABC) reagents (Vector Laboratories, Burlingame, Calif.) and color development with 3,3′-diaminobenzidine. The number of TH-positive neurons were counted in the entire surface area of a culture well or coverslip. For fluorescent double-labeling experiments, cells were incubated for 1 h at room temperature with rhodamine-conjugated donkey anti-mouse IgG (1:250), FITC-conjugated goat anti-rabbit IgG (1:250) or FITC-conjugated donkey anti-goat IgG (1:200) secondary antibodies (all from Jackson Immuno Research, West Grove, Pa.). Samples were counter-stained with Hoechst 33342 (5 μg/mL, Sigma-Aldrich) or DAPI (1 μg/mL), and mounted with 50% glycerol in PBS. Microscopic observations were done with a Zeiss Axiovert 200 M fluorescent microscope or a Zeiss LSM 510 META confocal imaging system (Carl Zeiss, Oberkochen, Germany). Immuno-reactive or Hoechst 33342-stained cells were counted in at least 10 random areas of each culture coverslip at a magnification of 100×.

[3] = system: VM precursor cultures; assay: Real-time RT-PCR analysis of VM precursor cultures; conditions: 1.25 mM SB, 3 days
[4] = system: acetylated histone H3 (Ac-H3); assay: Histone H3 acetylation (Western blot, immuno-staining) in VM precursor cultures
Method: as §1
For Western blot analysis, VM precursor cells were lysed in M-PER® Mammalian Protein Extraction Reagent (Pierce). Protein concentration was determined by Bradford assay (Bio-Rad, Hercules, Calif.). 30˜50 μg of protein sample was separated on 10˜12% sodium dodecyl sulphate-polyacrylamide gel (SDS-PAGE) and transferred to immobilon polyvinylidene difluoride (PVDF) membranes (Merck Millipore). The membranes were incubated in Tris-buffered saline (TBST, 0.1 M Tris/HCl, pH 7.4, 0.9% NaCl, 0.1% Tween 20) supplemented with 5% non-fat dry milk for 1 h to block nonspecific binding. […] The antigen-antibody complex was detected by using an ECL chemi-luminescence detection system (PerkinElmer, Boston, Mass.). The intensity of the bands was quantified with a GS-800 calibrated densitometer (Bio-Rad), and calculated as the optical density X area of bands.

Row | Molecule | TH promoter activity ([1]; 0.5 mM SB) | TH+ cell numbers ([2]; Nurr1-transduced cortical NPCs, SB, 3 days) | TH mRNA expression [3] | TH promoter activity (relative luciferase activity) ([1]; 1 μM UCN) | conversion of Nurr1+ cortical NPCs into DA neurons ([2]; 0.5 μM UCN, 3 days) | TH+ cells expressing the mature DA neuron-specific marker DAT ([2]; Nurr1-transduced NPCs, 0.5 μM UCN, 4 days) | TH+ cell numbers ([2]; cortical NPCs transduced with GFP, 0.5 μM UCN, 3 days) | TH+ cell numbers ([2]; cortical NPCs transduced with Nurr1, 0.5 μM UCN, 3 days) | Ac-H3-immuno-reactivity in non- or Nurr1-expressing cells ([4]; 1 μM UCN, 1 hour) | levels of Ac-H3 (Western blot) ([4]; 1 μM UCN, within minutes) | duration of histone H3 acetylation ([4]; single application of UCN)
1 | CCCC(=O)[O-].[Na+] [SB, sodium butyrate, reference compound] | increase TH promoter activity | increase in TH^+ cell numbers | markedly upregulated |  |  |  |  |  |  |  | 
2 | Urocortin [UCN] |  |  |  | activation of the TH promoter | increased the conversion | almost all of TH^+ cells | do not change | increase in TH^+ cell numbers | increased | significantly increases | at least 48 hours
